Source: US9290487B2, “Pharmaceutical composition for treating diabetes” (Ajinomoto Co., Inc., priority 2011, dated 2016)
Structures can show the parent of a compound that is named as a salt. Where two headings read alike, the source gives them in different places. Blank lines part the entries; values can stand above or below the compound they belong to.

What was measured:
PPAR-α = PPAR-α (Homo sapiens (Human), UniProt Q07869); assay: Measurement of PPAR-α activity (GAL4 luciferase reporter assay in CV-1 cells); format: cell-based; settings: 100(A/B), B = compound in WO/2011/058154 at 100 μM, read-out: PPARα relative fold induction (%)
PPAR-α, sequence (Q07869 167-468): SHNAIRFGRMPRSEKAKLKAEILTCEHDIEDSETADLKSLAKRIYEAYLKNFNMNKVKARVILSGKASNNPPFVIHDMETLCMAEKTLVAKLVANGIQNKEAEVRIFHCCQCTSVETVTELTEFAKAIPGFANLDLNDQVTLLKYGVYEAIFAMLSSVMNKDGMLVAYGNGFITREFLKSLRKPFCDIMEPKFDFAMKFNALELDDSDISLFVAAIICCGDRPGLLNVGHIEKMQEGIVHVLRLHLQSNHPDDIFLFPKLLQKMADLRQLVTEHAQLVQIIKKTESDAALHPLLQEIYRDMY
Procedure: The PPAR-α activity was measured according to the published article (THE JOURNAL OF BIOLOGICAL CHEMISTRY Vol. 270, No. 22, 12953-12956, 1995).
Plasmids used for the PPAR-α activity measurement were constructed as follows. A luciferase expression plasmid (UASx5-TK-Luc) used was obtained by introducing a sequence, in which five yeast GAL4-binding sequences are linked in tandem, upstream of a thymidine kinase promoter of pTAL-Luc (Takara Bio Inc., 6252-1). A PPAR-α receptor expression plasmid (hGR-GAL4-hPPARα) used was obtained by introducing a human GR N-terminal region (1-76 aa), a yeast GAL4 DNA-binding region (1-147 aa), and a PPARα ligand-binding region (167-468 aa) between a Not I site and a Sal I site of pExchange-1 Core Vector (Invitrogen Corporation, 211176).
A reporter assay was conducted by the following method using Cercopithecus aethiops kidney-derived CV-1 cells. The CV-1 cells were seeded in a 96-well plate (Thermo Fisher Scientific Inc., 4938) at 2×10^4 cells/well using a 10% FBS-containing DMEM (Nacalai Tesque, Inc., 0845874) medium. After culturing under conditions of 37° C. and 5% CO2 for 2 hours, the plasmids were transfected. Lipofectamine LTX (Invitrogen Corporation, 15338-100) was used for the transfection according to the attached manual. The plasmid solution was prepared by adding a mixture solution of the luciferase expression plasmid and the PPAR-α receptor expression plasmid to OPTI-MEM I (Invitrogen Corporation, 11058-021). After the transfection was conducted, the test compound was added, and cultured at 37° C. in the presence of 5% CO2 for 18 to 20 hours. After the culturing was completed, the luciferase activity was measured with Luminescensor JNR (ATTO) using Bright-Glo (Promega Corporation, E2620).
The fold induction of PPAR-α by the test compounds was calculated by the following method. For the compounds of Examples 1, 4, 5, 7, and 9, PPAR-α relative fold induction (%) was defined as 100 (A/B), where A represents the maximum value of PPAR-α activities with the test compound at 0.3 μM, 1 μM, 3 μM, 10 μM, 30 μM, and 100 μM, and B represents the PPAR-α activity with the compound in WO/2011/058154 at 100 μM. For the compounds of Examples 11, 15, 19, 22, 26, and 32, PPAR-α relative fold induction (%) was defined as 100 (A/B), where A represents the maximum value of PPAR-α activities with the test compound at 3 μM, 10 μM, 30 μM, and 100 μM, and B represents the PPAR-α activity with the compound in WO/2011/058154 at 100 μM.

[1] = biological target: human GYS1 (glycogen synthase) (Homo sapiens (Human), UniProt P13807); assay: Measurement of glycogen synthase activity (coupled pyruvate kinase/lactate dehydrogenase assay, absorbance at 340 nm); format: biochemical; settings: concentration inducing relative activity of 50% (100% = Ex. 1 of WO/2011/058154 at 10 μM)
human GYS1 (glycogen synthase), sequence (P13807 whole entry): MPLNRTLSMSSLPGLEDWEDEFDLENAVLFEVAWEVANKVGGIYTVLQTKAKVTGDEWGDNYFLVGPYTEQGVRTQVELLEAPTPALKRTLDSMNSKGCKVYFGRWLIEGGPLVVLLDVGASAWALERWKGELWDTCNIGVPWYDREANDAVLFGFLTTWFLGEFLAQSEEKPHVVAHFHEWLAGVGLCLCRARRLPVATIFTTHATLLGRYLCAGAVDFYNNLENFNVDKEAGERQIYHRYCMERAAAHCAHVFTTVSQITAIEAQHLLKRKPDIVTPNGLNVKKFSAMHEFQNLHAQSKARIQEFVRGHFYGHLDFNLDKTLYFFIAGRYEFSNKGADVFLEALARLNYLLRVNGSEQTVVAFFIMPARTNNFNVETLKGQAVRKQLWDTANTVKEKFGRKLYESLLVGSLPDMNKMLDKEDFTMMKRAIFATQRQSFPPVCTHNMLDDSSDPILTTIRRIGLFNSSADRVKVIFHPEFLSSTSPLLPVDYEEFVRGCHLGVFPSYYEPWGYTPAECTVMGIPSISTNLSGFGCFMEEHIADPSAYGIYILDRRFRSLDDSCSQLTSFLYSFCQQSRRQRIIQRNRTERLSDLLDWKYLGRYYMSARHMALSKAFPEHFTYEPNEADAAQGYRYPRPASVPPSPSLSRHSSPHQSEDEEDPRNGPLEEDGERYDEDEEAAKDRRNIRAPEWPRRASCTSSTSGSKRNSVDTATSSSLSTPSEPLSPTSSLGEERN
Method in brief: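 GYS1 expressed in HEK293T cells, with the lysate pellet used as enzyme. Reaction with glucose-6-phosphate, glycogen, UDP-glucose, PEP and NADH, pH 7.3, incubated 30° C for 25 min or 37° C for 20 min, then A340 read. EC50 relative to a reference activator at 10 μM set as 100%.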

[2] = test concentrations not stated for these examples
[3] = incubation at 37° C. for 20 minutes (Examples 11 to 75)
[4] = A = maximum activity at 0.3, 1, 3, 10, 30 and 100 μM
[5] = incubation at 30° C. for 25 minutes (Examples 1 to 10)

SMILES: COC(=O)c1cc(F)c(F)cc1-c1ccc(OCc2cccc(C(=O)N3CCC[C@H]3C(=O)O)c2)cc1 [compound of Ex. 44, 1-[3-({[4′,5′-difluoro-2′-(methoxycarbonyl)biphenyl-4-yl]oxy}methyl)benzoyl]-L-proline]
Emax (PPAR-α; [2]): 10%
EC50 [1, 3]: 810 nM

SMILES: O=C(O)[C@@H]1CCCN1C(=O)c1cccc(COc2ccc(-c3cc(F)c(F)cc3S)cc2)c1 [compound of Ex. 40, 1-(3-{[(4′,5′-difluoro-2′mercaptobiphenyl-4-yl)oxy]methyl}benzoyl)-L-proline]
Emax (PPAR-α; [2]): 10%
EC50 [1, 3]: 110 nM

SMILES: O=C(O)[C@@H]1CCCN1C(=O)c1cccc(COc2ccc(-c3cc(F)cc4c3OCC4)cc2)c1 [compound of Ex. 1, 1-(3-{[4-(5-fluoro-2,3-dihydro-1-benzofuran-7-yl)phenoxy]methyl}benzoyl)-L-proline]
Emax (PPAR-α; [4]): 10%
EC50 [1, 5]: 260 nM

SMILES: O=C(O)[C@@H]1CCCN1C(=O)c1cccc(COc2ccc(-c3cc(F)c(F)c4c(CO)coc34)cc2)c1 [compound of Ex. 56, 1-[3-({4-[4,5-difluoro-3-(hydroxymethyl)-1-benzofuran-7-yl]phenoxy}methyl)benzoyl]-L-proline]
Emax (PPAR-α; [2]): 6.4%
EC50 [1, 3]: 44 nM

SMILES: O=C(O)[C@@H]1CCCN1C(=O)c1cccc(COc2ccc(-c3cccc4c3OCO4)cc2)c1 [compound of Ex. 4, 1-(3-{[4-(1,3-benzodioxol-4-yl)phenoxy]methyl}benzoyl)-L-proline]
Emax (PPAR-α; [4]): 17%
EC50 [1, 5]: 250 nM

SMILES: O=Cc1cc2c(F)c(F)cc(-c3ccc(OCc4cccc(C(=O)N5CCC[C@H]5C(=O)O)c4)cc3)c2s1 [compound of Ex. 65, 1-(3-{[4-(4,5-difluoro-2-formyl-1-benzothien-7-yl)phenoxy]methyl}benzoyl)-L-proline]
Emax (PPAR-α; [2]): 11%
EC50 [1, 3]: 300 nM

SMILES: O=C(O)[C@@H]1CCCN1C(=O)c1cccc(COc2ccc(-c3cc(F)c(F)cc3SCCO)cc2)c1 [compound of Ex. 69, 1-{3-[({4′,5′-difluoro-2′-[(2-hydroxyethyl)thio]biphenyl-4-yl}oxy)methyl]benzoyl}-L-proline]
Emax (PPAR-α; [2]): 8.6%
EC50 [1, 3]: 130 nM

Further lines, results first:

Emax (PPAR-α; [2]): 8.6%
EC50 [1, 3]: 38 nM
SMILES: N#CCSc1cc(F)c(F)cc1-c1ccc(OCc2cccc(C(=O)N3CCC[C@H]3C(=O)O)c2)cc1 [compound of Ex. 71, 1-{3-[({2′-[(cyanomethyl)thio]-4′,5′-difluorobiphenyl-4-yl}oxy)methyl]benzoyl}-L-proline]

Emax (PPAR-α; [2]): 13%
EC50 [1, 3]: 54 nM
SMILES: N#CCNc1cc(-c2ccc(OCc3cccc(C(=O)N4CCC[C@H]4C(=O)O)c3)cc2)cc(F)c1F [compound of Ex. 42, 1-{3-[({3′-[(cyanomethyl)amino]-4′,5′-difluorobiphenyl-4-yl}oxy)methyl]benzoyl}-L-proline trifluoroacetic acid salt]

Emax (PPAR-α; [2]): 15%
EC50 [1, 3]: 610 nM
SMILES: N#Cc1coc2c(-c3ccc(OCc4cccc(C(=O)N5CCC[C@H]5C(=O)O)c4)cc3)cc(F)c(F)c12 [compound of Ex. 53]

Emax (PPAR-α; [2]): 11%
EC50 [1, 3]: 70 nM
SMILES: O=Cc1cc(F)c(F)cc1-c1ccc(OCc2cccc(C(=O)N3CCC[C@H]3C(=O)O)c2)cc1 [compound of Ex. 43, 1-(3-{[(4′,5′-difluoro-2′-formylbiphenyl-4-yl)oxy]methyl}benzoyl)-L-proline]

Emax (PPAR-α; [2]): 15%
EC50 [1, 3]: 83 nM
SMILES: CC(=O)CSc1cc(F)c(F)cc1-c1ccc(OCc2cccc(C(=O)N3CCC[C@H]3C(=O)O)c2)cc1 [compound of Ex. 51, 1-{3-[({4′,5′-difluoro-2′-[(2-oxopropyl)thio]biphenyl-4-yl}oxy)methyl]benzoyl}-L-proline]
